Measurements reported in publication PMC3425833, “Synthesis, Urease Inhibition, Antioxidant, Antibacterial, and Molecular Docking Studies of 1,3,4-Oxadiazole Derivatives” (ISRN Pharmacology, 2012).
Converted amounts (≈) assume the structure as drawn. “Also recorded” adds a separate entry of the source. Like-named read-outs stand apart in the source and are kept apart here.

Legend:
Jack bean urease = Jack bean urease (Canavalia ensiformis, UniProt P07374); experiment: biochemical; format: biochemical; details: for Urease inhibitory activity in words: qualitative statement
Bacillus subtilis = experiment: Antibacterial activity, serial tube dilution MIC; format: cell-based; details: for MIC: Bacillus subtilis, read-out: MIC B. subtilus
Protocol: (§1) The antibacterial activity data is represented in Table 2. […] Ciprofloxacin was used as standard drug. The compounds were found active against bacterial strains (2 Gram positive bacteria, namely, Staphylococcus aureus, Bacillus subtilis, and 2 Gram negative bacteria namely Escherichia coli, Shigella flexneri) in variable concentration. The antibacterial activities of 1,3,4-oxadiazole derivatives were evaluated in vitro by serial tube dilution method. The compounds and standard drug ciprofloxacin were dissolved in N,N-dimethylformamide (DMF) to give a concentration of 5 μg/mL (stock solution). Necessary apparatus and test tubes set of capacity 5 mL was washed cleaned and completely dried. For the bacterial culture double strength nutrient broth was used. The culture media was made by dissolving 15 g of nutrient broth in 1 L of distilled water. Approximately, 1 mL of culture media was prepared and transferred to each test tube by micropipette and capped with non-adsorbent cotton plugs. The test tubes containing 1 mL culture media was sterilized in an autoclave at 121°C for 20 min at 15 psi pressure. Sub-culturing of bacteria was done by transferring a loopful of particular bacterial strain from standard bacterial agar to 10 mL sterilized nutrient broth aseptically in a laminar air flow cabinet. It was then incubated for a period of 24 h at 37°C in a B. O. D. incubator. Bacterial strain suspension was prepared, after 24 h incubation, by aseptically inoculating 0.2 mL of revived bacterial colony into 100 mL of 0.9% m/v saline. A series of 5 assay tubes for a single derivative against each bacterial strain was employed. A stock solution of each test derivative at concentration 5 μg/mL (containing 1 mL nutrient broth) was serially diluted to achieve concentrations of 2.5, 1.25, 0.625, 0.313, and 0.156 μg/mL. Then, 0.1 mL of normal saline suspension of revived bacteria was added to each test tube. The inoculated tubes were incubated at 37°C for 24 h. The MIC (minimum inhibitory concentration) values were determined by subsequently checking for the absence of visual turbidity.

Escherichia coli = experiment: Antibacterial activity, serial tube dilution MIC; format: cell-based; details: for MIC: Escherichia coli, 24 h, read-out: MIC E. coli; for Antibacterial activity against E. coli compared to standard ciprofloxacin: in words
Protocol: as §1

Shigella flexneri = experiment: Antibacterial activity, serial tube dilution MIC; format: cell-based; details: for MIC: Shigella flexneri, read-out: MIC S. flexneri; for Antibacterial activity against S. flexneri compared to standard ciprofloxacin: in words
Protocol: as §1

Staphylococcus aureus = experiment: Antibacterial activity, serial tube dilution MIC; format: cell-based; details: for MIC: Staphylococcus aureus, read-out: MIC S. aureus; for Antibacterial activity against S. aureus compared to standard ciprofloxacin: in words
Protocol: as §1

[1] = DPPH radical scavenging (antioxidant) assay; details: for IC50: DPPH 300 μM, half an hour at 37°C; for DPPH radical scavenging activity compared to standard propyl gallate: in words
Protocol: The free radical scavenging capacity of the compounds was measured by 1,1-diphenyl-2-picrylhydrazyl. Test compounds were allowed to react with stable free radical, 1,1-diphenyl-2-picrylhydrazyl radical (DPPH) for half an hour at 37°C. The concentration of DPPH was kept as 300 μM. The test samples were dissolved in DMSO while the DPPH solution was prepared in ethanol. After incubation, decrease in absorption was measured at 515 nm using microplate reader. Percent radical scavenging activity of samples was determined in comparison with a DMSO treated as control. Propyl gallate and 3-tert-Butyl-4-hydroxyanisole were used as standards.

[2] = average of three readings, 24 h at 37°C

Jack bean urease, sequence (P07374 whole entry, looked up): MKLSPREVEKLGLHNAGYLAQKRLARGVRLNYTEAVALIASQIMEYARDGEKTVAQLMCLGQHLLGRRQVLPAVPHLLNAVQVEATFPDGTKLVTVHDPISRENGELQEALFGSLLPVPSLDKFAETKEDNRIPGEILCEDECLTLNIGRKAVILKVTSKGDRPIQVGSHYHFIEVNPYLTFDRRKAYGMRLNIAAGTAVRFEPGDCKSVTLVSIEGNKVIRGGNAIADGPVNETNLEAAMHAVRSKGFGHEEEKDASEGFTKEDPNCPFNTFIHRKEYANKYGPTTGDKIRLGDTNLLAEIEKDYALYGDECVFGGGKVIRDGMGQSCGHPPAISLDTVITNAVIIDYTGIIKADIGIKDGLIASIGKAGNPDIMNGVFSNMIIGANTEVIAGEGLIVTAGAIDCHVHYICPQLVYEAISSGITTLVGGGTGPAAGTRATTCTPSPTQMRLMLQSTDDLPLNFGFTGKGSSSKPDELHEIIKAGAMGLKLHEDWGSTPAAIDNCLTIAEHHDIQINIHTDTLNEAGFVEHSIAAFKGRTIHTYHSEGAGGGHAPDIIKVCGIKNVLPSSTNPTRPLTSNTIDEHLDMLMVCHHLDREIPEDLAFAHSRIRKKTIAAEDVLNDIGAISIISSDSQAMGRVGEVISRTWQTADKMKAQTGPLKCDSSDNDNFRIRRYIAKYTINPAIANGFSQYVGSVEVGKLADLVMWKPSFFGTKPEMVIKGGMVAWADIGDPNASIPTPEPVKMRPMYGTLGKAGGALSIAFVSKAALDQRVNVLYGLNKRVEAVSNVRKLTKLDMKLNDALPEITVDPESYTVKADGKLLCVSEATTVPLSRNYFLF

Row | Compound | IC50 (Jack bean urease) | MIC (Bacillus subtilis; [2]) | MIC (Escherichia coli; [2]) | Antibacterial activity against E. coli compared to standard ciprofloxacin (Escherichia coli) | MIC (Shigella flexneri; [2]) | Antibacterial activity against S. flexneri compared to standard ciprofloxacin (Shigella flexneri) | MIC (Staphylococcus aureus; [2]) | IC50 [1] | Urease inhibitory activity in words (Jack bean urease) | inhibition at 100 µM (Jack bean urease; read-out: % inhibition of Jack bean urease) | MIC (Bacillus subtilis; 24 h) | Antibacterial activity against S. aureus compared to standard ciprofloxacin (Staphylococcus aureus) | DPPH radical scavenging activity compared to standard propyl gallate [1] | MIC (Shigella flexneri; 24 h) | Antibacterial activity against B. subtilus relative to ciprofloxacin (Bacillus subtilis) | MIC (Staphylococcus aureus; 24 h) | MIC (Escherichia coli) | Urease inhibitory activity relative to the standard (thiourea) (Jack bean urease; more active than the standard) | IC50 (Jack bean urease; triplicate, thiourea standard, read-out: IC50 ± SEM, inhibitory activity against Jack bean urease)
1 | COc1ccc(CCc2n[nH]c(=S)o2)cc1 [Compound 4g, 5-(4-Methoxyphenethyl)-1,3,4-oxadiazole-2(3H)-thione] | 5.61 ± 0.3 µM | 0.625 µg/mL (≈ 2.64 µM) | 0.156 µg/mL (≈ 0.66 µM) | equipotent | 0.313 µg/mL (≈ 1.32 µM) | equipotent activity | 2.5 µg/mL (≈ 10.6 µM) | 50.8 ± 2.1 µM |  |  |  |  |  |  |  |  |  |  | 
2 | CCCOC(=O)c1cc(O)c(O)c(O)c1 [Propyl gallate, reference compound] |  |  |  |  |  |  |  | 40.8 ± 1.2 µM |  |  |  |  |  |  |  |  |  |  | 
3 | Fc1cc(Cl)ccc1-c1n[nH]c(=S)o1 [Compound 4r, 5-(4-Chloro-2-fluorophenyl)-1,3,4-oxadiazole-2(3H)-thione] |  |  |  | equipotent; also recorded: considerably less active | 0.313 µg/mL (≈ 1.36 µM) | equipotent activity | 0.156 µg/mL (≈ 0.676 µM) | 10.8 ± 0.2 µM | weak inhibitory activities | 39% | 0.313 µg/mL (≈ 1.36 µM) | equipotent activity | four-fold |  |  |  |  |  | 
4 | COc1ccc(O)c(C(C)(C)C)c1 [3-tert-Butyl-4-hydroxyanisole, reference compound] |  |  |  |  |  |  |  | 28.2 ± 1.1 µM |  |  |  |  |  |  |  |  |  |  | 
5 | O=C(O)c1cn(C2CC2)c2cc(N3CCNCC3)c(F)cc2c1=O [Ciprofloxacin, reference compound] |  | 0.625 µg/mL (≈ 1.89 µM) | 0.156 µg/mL (≈ 0.471 µM) |  |  |  | 0.156 µg/mL (≈ 0.471 µM) |  |  |  |  |  |  | 0.31 µg/mL (≈ 0.936 µM) |  |  |  |  | 
6 | Fc1ccccc1Cc1n[nH]c(=S)o1 [Compound 4f, 5-(2-Fluorobenzyl)-1,3,4-oxadiazole-2(3H)-thione] | 3.27 ± 0.3 µM | 0.156 µg/mL (≈ 0.742 µM) | 0.313 µg/mL (≈ 1.49 µM) |  | 1.25 µg/mL (≈ 5.95 µM) |  | 0.156 µg/mL (≈ 0.742 µM) | 46.6 ± 4.6 µM |  |  |  | equipotent activity |  |  | 4 fold |  |  |  | 
7 | S=c1[nH]nc(-c2cc3ccccc3[nH]2)o1 [Compound 4b, 5-(1H-Indol-2-yl)-1,3,4-oxadiazole-2(3H)-thione] | 21.3 ± 0.7 µM |  | 0.625 µg/mL (≈ 2.88 µM) |  | 0.313 µg/mL (≈ 1.44 µM) | equipotent activity | 0.156 µg/mL (≈ 0.718 µM) | 107 ± 3.4 µM | nearly same activity |  | 0.313 µg/mL (≈ 1.44 µM) | equipotent activity |  |  |  |  |  |  | 
8 | S=c1[nH]nc(Cc2ccc(Cl)c(Cl)c2)o1 [Compound 4e, 5-(3,4-Dichlorobenzyl)-1,3,4-oxadiazole-2(3H)-thione] | 11.3 ± 0.6 µM | 0.625 µg/mL (≈ 2.39 µM) | 0.156 µg/mL (≈ 0.597 µM) | equipotent | 0.313 µg/mL (≈ 1.2 µM) | equipotent activity |  | 59 ± 6.3 µM |  |  |  |  |  |  |  | 0.313 µg/mL (≈ 1.2 µM) |  |  | 
9 | COc1ccccc1CCc1n[nH]c(=S)o1 [Compound 4i, 5-(2-Methoxyphenethyl)-1,3,4-oxadiazole-2(3H)-thione] | 6.22 ± 0.4 µM | 0.625 µg/mL (≈ 2.64 µM) | 0.156 µg/mL (≈ 0.66 µM) | equipotent | 0.313 µg/mL (≈ 1.32 µM) | equipotent activity |  | 40.2 ± 3.3 µM |  |  |  |  | Equipotent |  |  | 0.313 µg/mL (≈ 1.32 µM) |  |  | 
10 | COc1ccc(-c2n[nH]c(=S)o2)c(OC)c1OC [Compound 4a, 5-(2,3,4-Trimethoxyphenyl)-1,3,4-oxadiazole-2(3H)-thione] | 5.79 ± 0.3 µM | 0.156 µg/mL (≈ 0.581 µM) |  |  | 0.313 µg/mL (≈ 1.17 µM) | equipotent activity | 1.25 µg/mL (≈ 4.66 µM) | 123 ± 5.1 µM |  |  |  |  |  |  | 4 fold |  | 0.313 µg/mL (≈ 1.17 µM) |  | 
11 | S=c1[nH]nc(Cc2ccccc2Cl)o1 [Compound 4k, 5-(2-Chlorobenzyl)-1,3,4-oxadiazole-2(3H)-thione] | 12.9 ± 0.6 µM | 0.313 µg/mL (≈ 1.38 µM) |  | equipotent | 0.156 µg/mL (≈ 0.688 µM) | two-fold activities |  | 34.4 ± 3.2 µM |  |  |  | equipotent activity | more effective |  |  | 0.156 µg/mL (≈ 0.688 µM) | 0.156 µg/mL (≈ 0.688 µM) |  | 
12 | S=c1[nH]nc(Cc2ccc(Br)cc2)o1 [Compound 4c, 5-(4-Bromobenzyl)-1,3,4-oxadiazole-2(3H)-thione] | 11.8 ± 0.4 µM |  | 2.5 µg/mL (≈ 9.22 µM) | considerably less active | 0.156 µg/mL (≈ 0.575 µM) | two-fold activities | 0.625 µg/mL (≈ 2.31 µM) | 38 ± 4.1 µM |  |  | 0.156 µg/mL (≈ 0.575 µM) |  | more effective |  | 4 fold |  |  |  | 
13 | COc1ccccc1Cc1n[nH]c(=S)o1 [Compound 4m, 5-(2-Methoxybenzyl)-1,3,4-oxadiazole-2(3H)-thione] | 5.6 ± 0.6 µM | 0.156 µg/mL (≈ 0.702 µM) | 0.625 µg/mL (≈ 2.81 µM) |  | 0.313 µg/mL (≈ 1.41 µM) | equipotent activity | 1.25 µg/mL (≈ 5.62 µM) | 42.7 ± 3.7 µM |  |  |  |  |  |  | 4 fold |  |  |  | 
14 | S=c1[nH]nc(Cc2ccc(Cl)cc2)o1 [Compound 4j, 5-(4-Chlorobenzyl)-1,3,4-oxadiazole-2(3H)-thione] | 1.15 ± 0.2 µM | 1.25 µg/mL (≈ 5.51 µM) | 0.313 µg/mL (≈ 1.38 µM) |  | 0.156 µg/mL (≈ 0.688 µM) | two-fold activities | 0.313 µg/mL (≈ 1.38 µM) | 51.6 ± 2.1 µM |  |  |  |  |  |  |  |  |  | 20 fold | 
15 | COc1ccc(Cc2n[nH]c(=S)o2)cc1 [Compound 4l, 5-(4-Methoxybenzyl)-1,3,4-oxadiazole-2(3H)-thione] | 5.83 ± 0.08 µM | 2.5 µg/mL (≈ 11.2 µM) | 0.313 µg/mL (≈ 1.41 µM) |  | 0.156 µg/mL (≈ 0.702 µM) | two-fold activities | 0.625 µg/mL (≈ 2.81 µM) | 88.2 ± 4.1 µM |  |  |  |  |  |  |  |  |  |  | 
16 | NC(N)=S [Thiourea, reference compound] |  |  |  |  |  |  |  |  |  |  |  |  |  |  |  |  |  |  | 22.3 ± 1.2 µM
